Measurements from patent US20260242373A1, “NBD1 MODULATORS AND METHODS OF USING THE SAME” (Sionna Therapeutics Inc., priority 2023, published 2026).

system: NBD1; assay: Aggregation analysis of NBD1 thermal stability by differential static light scattering (DSLS); type: binding, Human; details: 100 μM compound; ΔTagg versus DMSO control
Experimental: Purified recombinant NBD1 was produced using previously described methods (A. Schmidt, J. L. Mendoza, P. J. Thomas (2011) Biochemical and Biophysical Approaches to Probe CFTR Structure (365-376) M. D. Amaral, K. Kunzelmann (eds.), Cystic Fibrosis, Methods in Molecular Biology 741, Springer Science+Business Media). The effect of test compounds on thermal stability of NBD1 was evaluated by differential static light scattering (DSLS) using the Harbinger Stargazer-384 instrument (Epiphyte Three, Toronto, Canada). Test compounds were dissolved and diluted to desired concentrations in 100% DMSO. The compounds or DMSO controls (100 nL) were stamped into wells of a […] low volume optical plate (Corning Inc., Corning, NY) using the Echo 555 acoustic liquid handler (Labcyte Inc., San Jose, CA).
NBD1 protein was diluted to 0.2 mg/ml in S200 buffer (50 mM Tris-HCl, 150 mM NaCl, 5 mM MgCl2, 2 mM ATP, 2 mM DTT, pH7.6) containing 1% glycerol. 10 uL of protein solution was aliquoted into the 384-well plate harboring the test compounds and 10 uL mineral oil was overlayed onto the protein solution, using the epMotion robotic liquid handler (Eppendorf North America, Hauppauge, NY). After placing into the Stargazer instrument, the plate was heated at 1° C. per minute to 70° C. Images were captured from 25° C. to 70° C. every 0.5° C. At the end of the experiment run, instrument software integrated image files and analyzed data automatically. A […] regression curve was generated for each well, representing the increase in light scattering over time. A temperature of aggregation (Tagg) was calculated based on the inflection point of the curve. To better compare data across experiments the average Tagg for DMSO control wells was calculated and subtracted from values for wells containing compounds to obtain a “ΔTagg” value. These ΔTagg values reflect stabilizing efficacy of the compounds.

SMILES	DSLS NBD1/3D Human Stability delta-T (° C.) @ 100 (μM)
Cn1cc(Cc2cnc(-c3cccc(Oc4ccc5[nH]ccc5c4)c3)[nH]2)cn1 [Compound 28, 5-(3-(5-((1-methyl-1H-pyrazol-4-yl)methyl)-1H-imidazol-2-yl)phenoxy)-1H-indole]	C (C: ≤4° C.)
Cn1nccc1C(O)c1cnc(-c2cccc(Oc3ccc4[nH]cnc4c3)c2)[nH]1 (centres unmarked) [Compound 29, (2-(3-((1H-benzo[d]imidazol-5-yl)oxy)phenyl)-1H-imidazol-5-yl)(1-methyl-1H-pyrazol-5-yl)methanol]	C (C: ≤4° C.)
Cn1cc(C(O)c2nnc(-c3cccc(Oc4ccc5[nH]ccc5c4)c3)[nH]2)cn1 (centres unmarked) [Compound 30, (5-(3-((1H-indol-5-yl)oxy)phenyl)-4H-1,2,4-triazol-3-yl)(1-methyl-1H-pyrazol-4-yl)methanol]	B (B: 4-8° C.)
Cn1cc(Cc2nnc(-c3cccc(Oc4ccc5[nH]ccc5n4)c3)[nH]2)cn1 [Compound 31, 5-(3-(5-((1-methyl-1H-pyrazol-4-yl)methyl)-4H-1,2,4-triazol-3-yl)phenoxy)-1H-pyrrolo[3,2-b]pyridine]	C (C: ≤4° C.)
Cn1cc(C(O)c2cnc(-c3cccc(Oc4ccc5[nH]ccc5n4)c3)[nH]2)cn1 (centres unmarked) [Compound 32, (2-(3-((1H-pyrrolo[3,2-b]pyridin-5-yl)oxy)phenyl)-1H-imidazol-5-yl)(1-methyl-1H-pyrazol-4-yl)methanol]	C (C: ≤4° C.)
Cn1nccc1C(O)c1cnc(-c2cccc(Oc3ccc4[nH]ccc4n3)c2)[nH]1 (centres unmarked) [Compound 33, (2-(3-((1H-pyrrolo[3,2-b]pyridin-5-yl)oxy)phenyl)-1H-imidazol-5-yl)(1-methyl-1H-pyrazol-5-yl)methanol]	C (C: ≤4° C.)
OC(Cc1nccs1)c1cnc(-c2cccc(Oc3ccc4[nH]cnc4c3)c2)[nH]1 (centres unmarked) [Compound 34, 1-(2-(3-((1H-benzo[d]imidazol-5-yl)oxy)phenyl)-1H-imidazol-5-yl)-2-(thiazol-2-yl)ethan-1-ol]	C (C: ≤4° C.)
Cc1ncc(C(O)c2nnc(-c3cccc(Oc4ccc5[nH]cnc5c4)c3)[nH]2)s1 (centres unmarked) [Compound 35, (5-(3-((1H-benzo[d]imidazol-5-yl)oxy)phenyl)-4H-1,2,4-triazol-3-yl)(2-methylthiazol-5-yl)methanol]	C (C: ≤4° C.)
Cc1ncc(C(N)c2nnc(-c3cccc(Oc4ccc5[nH]cnc5c4)c3)[nH]2)s1 (centres unmarked) [Compound 36, (5-(3-((1H-benzo[d]imidazol-5-yl)oxy)phenyl)-4H-1,2,4-triazol-3-yl)(2-methylthiazol-5-yl)methanamine]	C (C: ≤4° C.)
Cc1ncc(C(O)c2nnc(-c3cccc(Oc4ccc5[nH]ccc5c4CO)c3)[nH]2)s1 (centres unmarked) [Compound 37, (5-(3-((4-(hydroxymethyl)-1H-indol-5-yl)oxy)phenyl)-4H-1,2,4-triazol-3-yl)(2-methylthiazol-5-yl)methanol]	B (B: 4-8° C.)
Cc1ncc(C(O)c2nnc(-c3cccc(Oc4ccc5[nH]ccc5c4C(=O)O)c3)[nH]2)s1 (centres unmarked) [Compound 38, 5-(3-(5-(hydroxy(2-methylthiazol-5-yl)methyl)-4H-1,2,4-triazol-3-yl)phenoxy)-1H-indole-4-carboxylic acid]	C (C: ≤4° C.)
Cc1ncc(C(O)c2nnc(-c3cccc(Oc4ccc5[nH]ccc5c4C(N)=O)c3)[nH]2)s1 (centres unmarked) [Compound 39, 5-(3-(5-(hydroxy(2-methylthiazol-5-yl)methyl)-4H-1,2,4-triazol-3-yl)phenoxy)-1H-indole-4-carboxamide]	B (B: 4-8° C.)
OCc1c(Oc2cccc(-c3nnc(C(O)c4cncs4)[nH]3)c2)ccc2[nH]ccc12 (centres unmarked) [Compound 40, (5-(3-((4-(hydroxymethyl)-1H-indol-5-yl)oxy)phenyl)-4H-1,2,4-triazol-3-yl)(thiazol-5-yl)methanol]	B (B: 4-8° C.)
CN(C)CCNC(=O)c1c(Oc2cccc(-c3nnc(C(O)c4cncs4)[nH]3)c2)ccc2[nH]ccc12 (centres unmarked) [Compound 41, N-(2-(dimethylamino)ethyl)-5-(3-(5-(hydroxy(thiazol-5-yl)methyl)-4H-1,2,4-triazol-3-yl)phenoxy)-1H-indole-4-carboxamide]	C (C: ≤4° C.)
O=C(NCC(O)C(F)(F)F)c1c(Oc2cccc(-c3nnc(C(O)c4cncs4)[nH]3)c2)ccc2[nH]ccc12 (centres unmarked) [Compound 42, 5-(3-(5-(hydroxy(thiazol-5-yl)methyl)-4H-1,2,4-triazol-3-yl)phenoxy)-N-(3,3,3-trifluoro-2-hydroxypropyl)-1H-indole-4-carboxamide]	B (B: 4-8° C.)
O=C(O)CCc1ccc(Cc2cnc(-c3cc(Oc4c(F)cc5[nH]ccc5c4F)ccc3F)[nH]2)s1 [Compound 43, 3-(5-((2-(5-((4,6-difluoro-1H-indol-5-yl)oxy)-2-fluorophenyl)-1H-imidazol-5-yl)methyl)thiophen-2-yl)propanoic acid]	A (A: T ≥8° C.)
CC(c1cccc(CCC(=O)O)c1F)c1nc(-c2cc(Oc3c(F)cc4[nH]ccc4c3F)ccc2F)n2ccccc12 (centres unmarked) [Compound 46, 3-(3-(1-(3-(5-((4,6-difluoro-1H-indol-5-yl)oxy)-2-fluorophenyl)imidazo[1,5-a]pyridin-1-yl)ethyl)-2-fluorophenyl)propanoic acid]	C (C: ≤4° C.)
CC(c1cccc(CCC(=O)O)c1F)c1nc(-c2cc(Oc3c(F)cc4[nH]ccc4c3F)ccc2F)n2c1CCCC2 (centres unmarked) [Compound 47, 3-(3-(1-(3-(5-((4,6-difluoro-1H-indol-5-yl)oxy)-2-fluorophenyl)-5,6,7,8-tetrahydroimidazo[1,5-a]pyridin-1-yl)ethyl)-2-fluorophenyl)propanoic acid]	C (C: ≤4° C.)
CC(c1cc(N)n(-c2cc(Oc3c(F)cc4[nH]ccc4c3F)ccc2F)n1)c1cccc(CCC(=O)O)c1F (centres unmarked) [Compound 48, 3-(3-(1-(5-amino-1-(5-((4,6-difluoro-1H-indol-5-yl)oxy)-2-fluorophenyl)-1H-pyrazol-3-yl)ethyl)-2-fluorophenyl)propanoic acid]	B (B: 4-8° C.)
CCOc1cc(C(C)c2cccc(CCC(=O)O)c2F)nn1-c1cc(Oc2c(F)cc3[nH]ccc3c2F)ccc1F (centres unmarked) [Compound 49, 3-(3-(1-(1-(5-((4,6-Difluoro-1H-indol-5-yl)oxy)-2-fluorophenyl)-5-ethoxy-1H-pyrazol-3-yl)ethyl)-2-fluorophenyl)propanoic acid]	B (B: 4-8° C.)
COc1cc(C(C)c2cccc(CCC(=O)O)c2F)nn1-c1cc(Oc2c(F)cc3[nH]ccc3c2F)ccc1F (centres unmarked) [Compound 50, 3-(3-(1-(1-(5-((4,6-difluoro-1H-indol-5-yl)oxy)-2-fluorophenyl)-5-methoxy-1H-pyrazol-3-yl)ethyl)-2-fluorophenyl)propanoic acid]	B (B: 4-8° C.)
CC(C1=NN(c2cc(Oc3c(F)cc4[nH]ccc4c3F)ccc2F)C(=O)C1)c1cccc(CCC(=O)O)c1F (centres unmarked) [Compound 51, 3-(3-(1-(1-(5-((4,6-difluoro-1H-indol-5-yl)oxy)-2-fluorophenyl)-5-oxo-4,5-dihydro-1H-pyrazol-3-yl)ethyl)-2-fluorophenyl)propanoic acid]	B (B: 4-8° C.)
CSc1cc(C(C)c2cccc(CCC(=O)O)c2F)nn1-c1cc(Oc2c(F)cc3[nH]ccc3c2F)ccc1F (centres unmarked) [Compound 52, 3-(3-(1-(1-(5-((4,6-difluoro-1H-indol-5-yl)oxy)-2-fluorophenyl)-5-(methylthio)-1H-pyrazol-3-yl)ethyl)-2-fluorophenyl)propanoic acid]	C (C: ≤4° C.)
CC(c1noc(-c2cc(Oc3c(F)cc4[nH]ccc4c3F)ccc2F)n1)c1cccc(CCC(=O)O)c1F (centres unmarked) [Compound 53, 3-(3-(1-(5-(5-((4,6-difluoro-1H-indol-5-yl)oxy)-2-fluorophenyl)-1,2,4-oxadiazol-3-yl)ethyl)-2-fluorophenyl)propanoic acid]	B (B: 4-8° C.)
Cc1c(Oc2cccc(-c3nn(Cc4cccc(CCC(=O)O)c4)cc3F)c2)c(F)cc2[nH]ccc12 [Compound 54, 3-(3-((4-fluoro-3-(3-((6-fluoro-4-methyl-1H-indol-5-yl)oxy)phenyl)-1H-pyrazol-1-yl)methyl)phenyl)propanoic acid]	B (B: 4-8° C.)
CC(c1cccc(CC(=O)O)c1F)n1cc(F)c(-c2ccc(F)c(Oc3c(F)cc4[nH]ccc4c3S(C)(=O)=O)c2)n1 (centres unmarked) [Compound 55, 2-(2-fluoro-3-(1-(4-fluoro-3-(4-fluoro-3-((6-fluoro-4-(methylsulfonyl)-1H-indol-5-yl)oxy)phenyl)-1H-pyrazol-1-yl)ethyl)phenyl)acetic acid]	A (A: T ≥8° C.)
